Where two headings read alike, the source gives them in different places.
Tests used:
[1] = test system: HCV replicon (Clone A cells, Huh7, subgenomic hepatits C virus RNA); assay: HCV Neo screening assay (HCV replicon, NPTII ELISA); type: cell-based, hepatitis C virus; settings: for EC50 / inhibition at 25 µM: Hepatitis C virus, Huh-7; for EC50: Secondary Data, HCV; for inhibition at 25 µM: primary screening, 25 μM final concentration, 24 hours, percent inhibition of viral replication, read-out: HCV Inh; for HCV TI: therapeutic index CC50/EC50, HCV
[2] = test system: RSV minigenome; assay: RSV minigenome-dependent β-galactosidase expression assay (RSV β-Gal); type: cell-based, respiratory syncytial virus; settings: for EC50 / inhibition at 25 µM: human respiratory syncytial virus; for EC50: RSV; for inhibition at 25 µM: primary screening, 25 μM final concentration, 24 hours, percent inhibition of viral replication, read-out: RSV Inh; for RSV TI: therapeutic index CC50/EC50, RSV
[3] = test system: WNV (WN-hRuPac cells); assay: WNV antiviral activity, WN-hRuPac cells, Renilla luciferase; type: cell-based, West Nile virus; settings: for EC50 / inhibition at 25 µM: West Nile virus; for EC50: read-out: WNV EC50; for inhibition at 25 µM: primary screening, 25 μM final concentration, 24 hours, percent inhibition of viral replication, read-out: WNV Inh; for WNV TI: therapeutic index CC50/EC50, WNV
[4] = test system: YFV (YF-hRuPac cells); assay: microbe, parasite or virus in culture; type: cell-based, yellow fever virus; settings: for inhibition at 25 µM / EC50: Yellow fever virus; for inhibition at 25 µM: 24 h, read-out: YFV Inh; for EC50: read-out: YFV EC50
[5] = test system: DNG (D2-hRuPac cells); assay: DNG antiviral activity, D2-hRuPac cells, Renilla luciferase; type: cell-based, Dengue fever virus; settings: Dengue virus, secondary screening
[6] = test system: EBOV minigenome; assay: microbe, parasite or virus in culture; type: cell-based, Ebola virus; settings: Zaire ebolavirus; for inhibition at 25 µM: 24 h, read-out: EBOV Inh; for EC50: read-out: EBOV EC50
[7] = test system: SINV (SR19-F-luc cells); assay: SINV antiviral activity, SR19-F-luc cells, Firefly luciferase; type: cell-based; settings: Sindbis virus; for inhibition at 25 µM: primary screening, 25 μM final concentration, 24 hours, percent inhibition of viral replication, read-out: SINV Inh; for EC50: secondary screening, SR19-F-luc cells
[8] = in vitro
[9] = Secondary Data, read-out: RSV EC50

SMILES | inhibition at 25 µM [1] [%] | EC50 [2, 9] [µM] | inhibition at 25 µM [2] [%] | RSV TI [2] | EC50 ([3]; Secondary Data, WNV) [µM] | inhibition at 25 µM [3] [%] | YFV TI [4] | inhibition at 25 µM [4] [%] | EC50 [4] [µM] | EC50 [5] [µM] | inhibition at 25 µM [6] [%] | EC50 [6] [µM] | inhibition at 25 µM [7] [%] | EC50 [7] [µM] | CC50 ([8]; DNG CC50) [µM] | CC50 ([8]; EBOV CC50) [µM] | CC50 ([8]; RSV CC50) [µM] | CC50 ([8]; SINV CC50) [µM] | CC50 ([8]; WNV CC50) [µM] | CC50 ([8]; YFV CC50) [µM] | other results
CCOc1ccc2nc(C)cc(Nc3ccc(C)c(Cl)c3)c2c1 [Compound 45] | 119 | 2.95 | 99.9 | 8.59 | 3.17 | 99 | 11.95 | 100 | 2.12 | 5.04 | 96.2 | 75 | 95.7 | 3.23 | 25.3 | 25.3 | 25.3 | 25.3 | 25.3 | 25.3 | EC50 [1]: 4.4 µM; HCV TI [1]: 1.06; WNV TI [3]: 7.99; CC50 ([8]; HCV CC50): 4.66 µM
Cc1ccc2nc3c(c(Nc4ccccc4)c2c1)CCC3 [Compound 27] | 113 | 6 | 92.2 | 8.45 | 2.78 | 60 | 4.3 | 70.2 | 11.8 | 38.4 | -4.87 | 63.4 | 70.6 | 1.88 | 50.7 | 50.7 | 50.7 | 50.7 | 50.7 | 50.7 | EC50 [1]: 14 µM; HCV TI [1]: 1.73; WNV TI [3]: 18.24; CC50 ([8]; HCV CC50): 24.2 µM
CCOC(=O)c1cnc2c(C)cc(C)cc2c1NCc1ccco1 [Compound 35] | 67.5 | 1.04 | 89.9 | 35.77 | 2.52 | 104 | 12.28 | 98.7 | 3.03 | 11.1 | 75.2 | 6.64 | 44.9 | ≥ 75 | 37.2 | 37.2 | 37.2 | 37.2 | 37.2 | 37.2 | EC50 [1]: 8.35 µM; HCV TI [1]: 6.34; WNV TI [3]: 14.76; CC50 ([8]; HCV CC50): 53 µM
CCOC(=O)c1ccc2ncc(C(=O)OCC)c(NCCCOC(=O)C(Cl)(Cl)Cl)c2c1 [Compound 64] | 43.4 | 22 | 84.9 | 2.75 | 8.9 | 37.2 | 1.32 | 25.8 | 45.9 | 4.19 | 90.1 | 15.5 | 26.1 | 34.1 | 60.5 | 60.5 | 60.5 | 60.5 | 60.5 | 60.5 | WNV TI [3]: 6.8
CCOC(=O)c1cnc2ccc(OCC)cc2c1NCc1ccco1 [Compound 36] | 135 | 1.46 | 100 | 32.4 | 2.38 | 93.7 | 6.98 | 94.4 | 6.78 | 16.5 | 15.5 | 75 | -58.8 | ≥ 75 | 47.3 | 47.3 | 47.3 | 47.3 | 47.3 | 47.3 | EC50 [1]: 6 µM; HCV TI [1]: 3.55; WNV TI [3]: 19.87; CC50 ([8]; HCV CC50): 21.3 µM
CCOC(=O)c1cnc2c(C)cccc2c1NCc1ccco1 [Compound 46] | 15 | 1.31 | 94.7 | 37.48 | 2.96 | 103 | 13.87 | 97.7 | 3.54 | 10.2 | 90 | 7.92 | -16.9 | 49.7 | 49.1 | 49.1 | 49.1 | 49.1 | 49.1 | 49.1 | WNV TI [3]: 16.59
CCOC(=O)c1cnc2c(C(F)(F)F)cccc2c1Nc1ccc(S(=O)(=O)Nc2nc(C)cc(C)n2)cc1 [Compound 72] | -24.8 | 41.7 | 50.3 | 1.8 | 13.3 | 83.2 | 3.59 | 90 | 20.9 | 12 | 86 | 17.3 | -4.36 | 37.1 | ≥ 75 | ≥ 75 | ≥ 75 | ≥ 75 | ≥ 75 | ≥ 75 | WNV TI [3]: 5.64; CC50 ([8]; HCV CC50): ≥ 75 µM
CCOC(=O)c1cnc2ccc(OCC)cc2c1Nc1ccc(I)cc1 [Compound 32] | -11.1 | 3.5 | 48.3 | 21.43 | ≥ 75 | -2.69 |  | -16.9 | ≥ 75 | ≥ 75 | 31.9 | 75 | -17.6 | ≥ 75 | ≥ 75 | ≥ 75 | ≥ 75 | ≥ 75 | ≥ 75 | ≥ 75 | CC50 ([8]; HCV CC50): ≥ 75 µM
Cc1ccc2nc(C)cc(Nc3ccccc3)c2c1 [Compound 3] | 32.1 |  | 86.3 | 4.63 |  | 38.7 | 2.84 | 41.7 | 18.4 | 34.2 | -44.2 | 65.2 | 76.1 | 1.29 | 52.3 | 52.3 | 52.3 | 52.3 | 52.3 | 52.3 | EC50 ([2]; read-out: RSV EC50, Secondary Data): 11.3 µM; EC50 [3]: 29.9 µM; WNV TI [3]: 1.75; CC50 ([8]; HCV CC50): 32.3 µM
Cc1ccc2nc3c(c(Nc4ccc(N5CCOCC5)cc4)c2c1)CCC3 [Compound 21] | 159 | 4.16 | 99.4 | 10.77 | 9.62 | 62.7 | 7.16 | 63.1 | 6.26 | 20.2 | 46.5 | 47.9 | 69.7 | 12.1 | 44.8 | 44.8 | 44.8 | 44.8 | 44.8 | 44.8 | EC50 [1]: 8.09 µM; HCV TI [1]: 0.99; WNV TI [3]: 4.66; CC50 ([8]; HCV CC50): 8.02 µM
CC(=O)c1cccc(Nc2cc(C)nc3ccccc23)c1 [Compound 17] | 12.3 | 37.3 | 50.7 | 2.01 | ≥ 75 | 40.3 | 1.18 | 54 | 63.6 | ≥ 75 | -42 | 75 | 72.1 | 3.83 | ≥ 75 | ≥ 75 | ≥ 75 | ≥ 75 | ≥ 75 | ≥ 75 | CC50 ([8]; HCV CC50): 30.4 µM
Cc1cc(C)c2nc(C)cc(Nc3ccc(O)cc3)c2c1 [Compound 49] | 113 | 4.39 | 90.2 | 8.94 | 5.58 | 66.4 | 3.57 | 66.5 | 11 | 13.2 | 69.9 | 6.88 | 72.5 | ≥ 75 | 39.3 | 39.3 | 39.3 | 39.3 | 39.3 | 39.3 | EC50 [1]: 11.1 µM; HCV TI [1]: 1.47; WNV TI [3]: 7.04; CC50 ([8]; HCV CC50): 16.3 µM
